The values below come from patent publication US20250326744A1, “PIPERAZINE DERIVATIVE OR SALT THEREOF, AND PHARMACEUTICAL COMPOSITION” (priority 2022, published 2025).

Structures can show the parent of a compound that is named as a salt.

Experiment [1] relates to mexB (PA) strain. The experiment is described as follows: Combinational effect with antibacterial agent against Pseudomonas aeruginosa (Test Examples 2 and 4): mexB (PA) strain with LVFX, TC or AZT at 1/4 MIC, EC99. The format is cell-based. Particulars: for EC99, mexB (PA), AZT / EC99, mexB (PA), LVFX / EC99, mexB (PA), TC: Table 52, Test Example 2, 16 to 20 hours culture, OD595; for EC99, mexB (PA), AZT / EC99, combinational effect with AZT, mexB (PA): combined with AZT at 1/4 MIC; for EC99, mexB (PA), LVFX / EC99, combinational effect with LVFX, mexB (PA): combined with LVFX at 1/4 MIC; for EC99, mexB (PA), TC / EC99, combinational effect with TC, mexB (PA): combined with TC at 1/4 MIC; for EC99, combinational effect with AZT, mexB (PA) / EC99, combinational effect with LVFX, mexB (PA) / EC99, combinational effect with TC, mexB (PA): mexB (PA) strain, Test Example 4. The protocol:
(§1) The combinational effect of the test compound with the antibacterial agent against Pseudomonas aeruginosa was evaluated.
For the evaluation of the inhibitory ability against MexAB-OprM, a mutant strain of Pseudomonas aeruginosa in which MexAB-OprM was expressed as a main drug efflux pump (hereinafter, referred to as a “mexB (PA) strain”) was used. LVFX, TC, or AZT was used as the antibacterial agent used in combination.
The mexB (PA) strain is a strain produced by deleting the genes of MexCD-OprJ, MexEF-OprN, and MexXY in the drug efflux pump of Pseudomonas aeruginosa described in FEMS Microbiology Letters, 2001, Vol. 202, pp. 139 to 143. In the mexB (PA) strain, an expression level of MexB as a drug efflux pump is accelerated.
TC is a tetracycline-based antibacterial agent and is a drug that is discharged outside the bacteria by MexB. AZT is a monobactam-based antibacterial agent and is a drug that is discharged outside the bacteria by MexB.
(§2) AMK and GM are aminoglycoside-based antibacterial agents, and are drugs that are not discharged outside the bacteria by MexB but are discharged outside the bacteria by MexY For the culture of each Pseudomonas aeruginosa strain, a 96-well plate (amount of culture medium per well: 100 μL) was used, and cation-adjusted Mueller Hinton broth (CAMHB) was used. The inoculation amount of the bacteria was set to 10^4 to 5 CFU/well.
(§3) The mexB (PA) strain and the S-3769 strain were cultured for 16 to 20 hours in a culture medium to which each antibacterial agent and test compounds at various concentrations (0 to 800 μM) were added, and the proliferation of the bacterial strains was evaluated by optical turbidity at 595 nm (OD595). The concentration of the antibacterial agent in the culture medium was set to ¼ MIC.
(§4) The proliferation of bacteria in a case where the test compound and the antibacterial agent were not added was measured, and compared with the proliferation of bacteria in a case where the test compound in a case where the antibacterial agent was added at the concentration of ¼ MIC was contained, and the lowest concentration of the test compound at which the proliferation was inhibited by 99% or more was defined as the drug efflux pump inhibitory ability of the test compound as 99% inhibitory effect concentration (EC99).
(§5) The effect of suppressing the proliferation of each test compound in combination with an antibacterial agent at ¼ MIC for mexB (PA) or the S-3769 strain was evaluated as follows according to the value of EC99. • S: EC99≤12.5 μM • A: 12.5 μM<EC99≤25 μM • B: 25 μM<EC99≤100 μM • C: 100 μM<EC99
(§6) The combinational effect of the test compound with the antibacterial agent against Pseudomonas aeruginosa was evaluated in the same manner as in Test Example 2.

The test system of experiment [2] is S-3769 strain. The experiment is described as follows: Combinational effect with antibacterial agent against Pseudomonas aeruginosa (Test Examples 2 and 4): S-3769 strain with AMK or GM at 1/4 MIC, EC99. The experiment is classed as cell-based. The settings on record: for EC99, S-3769 strain, AMK / EC99, S-3769 strain, GM: Table 52, Test Example 2, 16 to 20 hours culture, OD595; for EC99, S-3769 strain, AMK / EC99, combinational effect with AMK, S-3769 strain: combined with AMK at 1/4 MIC; for EC99, S-3769 strain, GM / EC99, combinational effect with GM, S-3769 strain: combined with GM at 1/4 MIC; for EC99, combinational effect with AMK, S-3769 strain / EC99, combinational effect with GM, S-3769 strain: Test Example 4. Here is the method:
as §1
The […] was used for evaluating the inhibitory ability against MexXY-OprM. AMK or GM was used as the antibacterial agent used in combination.
The S-3769 strain is a clinically isolated strain collected from a domestic medical institution, and is a strain in which the expression level of MexY is accelerated.
as §2, §3, §4, §5, §6

Regarding `CCOc1cccc(F)c1CN1CCN(C(=O)[C@H](N)C2CCN(CCc3cc(Cl)ccc3-c3cnccc3N)CC2)CC1` [Example 93, (R)-2-amino-2-(1-(2-(4-aminopyridin-3-yl)-5-chlorophenethyl)piperidin-4-yl)-1-(4-(2-ethoxy-6-fluorobenzyl)piperazin-1-yl)ethan-1-one], in experiment [1], the “EC99, mexB (PA), AZT” value is recorded as “S (EC99≤12.5 μM)”; the “EC99, mexB (PA), LVFX” value was “S (EC99≤12.5 μM)”; the “EC99, mexB (PA), TC” value is given as “S (EC99≤12.5 μM)”. Besides, in experiment [2], the “EC99, S-3769 strain, AMK” value is on record as “B (25 μM<EC99≤100 μM)” and the “EC99, S-3769 strain, GM” value is reported as “B (25 μM<EC99≤100 μM)”.

For the molecule `CCOc1cccc(F)c1CN1CCN(C(=O)[C@H](N)C2CCN(CCc3cc(Cl)ccc3-c3cccs3)CC2)CC1` [Example 72, Hydrobromide of (R)-2-amino-2-(1-(5-chloro-2-(thiophen-2-yl)phenethyl)piperidin-4-yl)-1-(4-(2-ethoxy-6-fluorobenzyl)piperazin-1-yl)ethan-1-one], in experiment [1], the “EC99, mexB (PA), AZT” value is given as “B (25 μM<EC99≤100 μM)”; the “EC99, mexB (PA), LVFX” value is “C (100 μM<EC99)”; the “EC99, mexB (PA), TC” value was “B (25 μM<EC99≤100 μM)”. In experiment [2], the “EC99, S-3769 strain, AMK” value is on record as “S (EC99≤12.5 μM)” and the “EC99, S-3769 strain, GM” value is “S (EC99≤12.5 μM)”.

With `CSc1ccc(F)cc1CN1CCN(C(=O)[C@H](N)C2CCN(CCc3cc(Cl)ccc3-c3ccccc3)CC2)CC1` [Example 530, Hydrobromide of (R)-2-amino-2-(1-(2-(4-chloro-[1,1-biphenyl]-2-yl)ethyl)piperidin-4-yl)-1-(4-(5-fluoro-2-(methylthio)benzyl)piperazin-1-yl)ethan-1-one], in experiment [1], the “EC99, combinational effect with AZT, mexB (PA)” value (“EC99 … with AZT, mexB (PA)” below) was “B (25 μM<EC99≤100 μM)”; the “EC99, combinational effect with LVFX, mexB (PA)” value (“EC99 … with LVFX, mexB (PA)” for short) is recorded as “S (EC99≤12.5 μM)”; the “EC99, combinational effect with TC, mexB (PA)” value (shortened to “EC99 … with TC, mexB (PA)”) is “S (EC99≤12.5 μM)”. In experiment [2], the “EC99, combinational effect with AMK, S-3769 strain” value (from here on “EC99, combinational effect with AMK”) is given as “S (EC99≤12.5 μM)” and the “EC99, combinational effect with GM, S-3769 strain” value (from here on “EC99, combinational effect with GM”) is “A (12.5 μM<EC99≤25 μM)”.

For the molecule `CCOc1cccc(F)c1CN1CCN(C(=O)CN2CCC(CN)(CCc3ccccc3)CC2)CC1` [Example 425, hydrobromide of 2-(4-(aminomethyl)-4-phenethylpiperidin-1-yl)-1-(4-(2-ethoxy-6-fluorobenzyl)piperazin-1-yl)ethan-1-one], in experiment [1], the “EC99, mexB (PA), AZT” value is “C (100 μM<EC99)”; the “EC99, mexB (PA), LVFX” value is listed as “C (100 μM<EC99)”; the “EC99, mexB (PA), TC” value is recorded as “C (100 μM<EC99)”. For the same molecule, in experiment [2], the “EC99, S-3769 strain, AMK” value is “B (25 μM<EC99≤100 μM)” and the “EC99, S-3769 strain, GM” value was “B (25 μM<EC99≤100 μM)”.

As to `CCOc1cccc(F)c1CN1CCN(C(=O)[C@H](N)C2CCN(CCc3ccccc3-c3ccccc3)CC2)CC1` [Example 109, hydrochloride of (R)-2-(1-(2-([1,1′-biphenyl]-2-yl)ethyl)piperidin-4-yl)-2-amino-1-(4-(2-ethoxy-6-fluorobenzyl)piperazin-1-yl)ethan-1-one], in experiment [1], the “EC99, mexB (PA), AZT” value is “B (25 μM<EC99≤100 μM)”; the “EC99, mexB (PA), LVFX” value was “C (100 μM<EC99)”; the “EC99, mexB (PA), TC” value is on record as “B (25 μM<EC99≤100 μM)”. Besides, in experiment [2], the “EC99, S-3769 strain, AMK” value was 4 µM and the “EC99, S-3769 strain, GM” value is reported as “A (12.5 μM<EC99≤25 μM)”.

Take `CCOc1cccc(F)c1CN1CCN(C(=O)[C@H](N)C2CCN(CCc3cc(Cl)ccc3C3=CCCCC3)CC2)CC1` [Example 56, Hydrobromide of (R)-2-amino-2-(1-(2-(4-chloro-2′,3′,4′,5′-tetrahydro-[1,1′-biphenyl]-2-yl)ethyl)piperidin-4-yl)-1-(4-(2-ethoxy-6-fluorobenzyl)piperazin-1-yl)ethan-1-one]: in experiment [1], the “EC99, mexB (PA), AZT” value is “B (25 μM<EC99≤100 μM)”; the “EC99, mexB (PA), LVFX” value was “C (100 μM<EC99)”; the “EC99, mexB (PA), TC” value is “B (25 μM<EC99≤100 μM)”. Moreover, in experiment [2], the “EC99, S-3769 strain, AMK” value was “A (12.5 μM<EC99≤25 μM)” and the “EC99, S-3769 strain, GM” value was “A (12.5 μM<EC99≤25 μM)”.

As for `CSc1cccc(O)c1CN1CCN(C(=O)[C@H](N)C2CCN(CCc3cc(Cl)ccc3-c3ccccc3)CC2)CC1` [Example 590, Hydrochloride of (R)-2-amino-2-(1-(2-(4-chloro-[1,1-biphenyl]-2-yl)ethyl)piperidin-4-yl)-1-(4-(2-hydroxy-6-(methylthio)benzyl)piperazin-1-yl) ethan-1-one], in experiment [1], the “EC99 … with AZT, mexB (PA)” value was “S (EC99≤12.5 μM)”; the “EC99 … with LVFX, mexB (PA)” value is recorded as “S (EC99≤12.5 μM)”; the “EC99 … with TC, mexB (PA)” value is “S (EC99≤12.5 μM)”. Moreover, in experiment [2], the “EC99, combinational effect with AMK” value is on record as “A (12.5 μM<EC99≤25 μM)” and the “EC99, combinational effect with GM” value is “A (12.5 μM<EC99≤25 μM)”.

As to `CCOc1cccc(F)c1CN1CCN(C(=O)[C@H](N)C2CCN(CCc3cccc4ccccc34)CC2)CC1` [Example 42], in experiment [1], the “EC99, mexB (PA), AZT” value is “B (25 μM<EC99≤100 μM)”; the “EC99, mexB (PA), LVFX” value is reported as “B (25 μM<EC99≤100 μM)”; the “EC99, mexB (PA), TC” value is “B (25 μM<EC99≤100 μM)”. Also, in experiment [2], the “EC99, S-3769 strain, AMK” value was “S (EC99≤12.5 μM)” and the “EC99, S-3769 strain, GM” value is listed as “S (EC99≤12.5 μM)”.

Regarding `CCSc1cc(F)ccc1CN1CCN(C(=O)[C@H](N)C2CCN(CCc3cscc3-c3ccccc3)CC2)CC1` [Example 608, Hydrochloride of (R)-2-amino-1-(4-(2-(ethylthio)-4-fluorobenzyl)piperazin-1-yl)-2-(1-(2-(4-phenylthiophen-3-yl)ethyl)piperidin-4-yl)ethan-1-one], in experiment [1], the “EC99 … with AZT, mexB (PA)” value was “B (25 μM<EC99≤100 μM)”; the “EC99 … with LVFX, mexB (PA)” value was “B (25 μM<EC99≤100 μM)”; the “EC99 … with TC, mexB (PA)” value was “B (25 μM<EC99≤100 μM)”. Also, in experiment [2], the “EC99, combinational effect with AMK” value is “B (25 μM<EC99≤100 μM)” and the “EC99, combinational effect with GM” value is “B (25 μM<EC99≤100 μM)”.

Take `CCOc1cccc(F)c1CN1CCN(C(=O)[C@H](N)C2CCC(N(C)Cc3ccccc3)CC2)CC1` (stereo partly drawn) [Example 570, Hydrobromide of (R)-2-amino-2-(4-(benzyl(methyl)amino)cyclohexyl)-1-(4-(2-ethoxy-6-fluorobenzyl)piperazin-1-yl)ethan-1-one]: in experiment [1], the “EC99 … with AZT, mexB (PA)” value is listed as “C (100 μM<EC99)”; the “EC99 … with LVFX, mexB (PA)” value is given as “C (100 μM<EC99)”; the “EC99 … with TC, mexB (PA)” value was “C (100 μM<EC99)”. Moreover, in experiment [2], the “EC99, combinational effect with AMK” value was “B (25 μM<EC99≤100 μM)” and the “EC99, combinational effect with GM” value is reported as “B (25 μM<EC99≤100 μM)”.

On to `N[C@@H](C(=O)N1CCN(Cc2cccc3c2OCCO3)CC1)C1CCN(CCc2cc(Cl)ccc2-c2ccccc2)CC1` [Example 37, Hydrobromide of (R)-2-amino-2-(1-(2-(4-chloro-[1,1′-biphenyl]-2-yl)ethyl)piperidin-4-yl)-1-(4-((2,3-dihydrobenzo[b] [1,4]dioxin-5-yl)methyl)piperazin-1-yl) ethan-1-one], for which, in experiment [1], the “EC99, mexB (PA), AZT” value was “B (25 μM<EC99≤100 μM)”; the “EC99, mexB (PA), LVFX” value is listed as “C (100 μM<EC99)”; the “EC99, mexB (PA), TC” value is reported as “B (25 μM<EC99≤100 μM)”. In experiment [2], the “EC99, S-3769 strain, AMK” value is given as “B (25 μM<EC99≤100 μM)” and the “EC99, S-3769 strain, GM” value is on record as “B (25 μM<EC99≤100 μM)”.
